Assay results from paper PMC2639753 (Bioorganic & medicinal chemistry, 2008).
pIC50: −log10 of the molar value.

Legend:
HIV-1 RT = HIV-1 RT (Human immunodeficiency virus type 1 group M subtype B, UniProt P03366); assay: In vitro steady-state RT inhibition assay; assay type: biochemical
HIV-1 (IIIB) = assay: Antiviral activity against HIV-1; conditions: MT-2 cells

**Q.** For `C#CCCCOc1ccc(OC)cc1CCNC(=S)Nc1ccc(Br)cn1` [6d, N-(5-Bromo-2-pyridinyl)-N′-{2-[5-methoxy-2-(4-pentynyl-1-oxy)phenyl]ethyl}-thiourea], which “activity relative to HI-236 in the RT assay” value (HIV-1 RT) is on record?
**A.** as active as HI-236

**Q.** How did the “fold increase in activity compared to HI-236 in the RT assay” value (HIV-1 RT) turn out when `C#CCCOc1ccc(OC)cc1CCNC(=S)Nc1ccc(Br)cn1` [6c, N-(5-Bromo-2-pyridinyl)-N′-{2-[2-(3-butynyl-1-oxy)-5-methoxyphenyl]ethyl}-thiourea] was run?
**A.** 7 fold

**Q.** For `C#CCOCCOc1ccc(OC)cc1CCNC(=S)Nc1ccc(Br)cn1` [6i], which “T.I (in vitro therapeutic index CC50/EC50)” value (HIV-1 (IIIB)) is on record?
**A.** 100

**Q.** With `COc1ccc(OCCCC#N)c(CCNC(=S)Nc2ccc(Br)cn2)c1` [6m] as the molecule, how does the “activity relative to HI-236 in cell culture” value (HIV-1 (IIIB)) read?
**A.** equal to HI-236

**Q.** For `COc1ccc(OCCCO)c(CCNC(=S)Nc2ccc(Br)cn2)c1` [6o], which “activity relative to HI-236 in the RT assay” value (HIV-1 RT) is on record?
**A.** as active as HI-236

**Q.** For `C#CCOc1ccc(OC)cc1CCNC(=S)Nc1ccc(Br)cn1` [6b, N-(5-Bromo-2-pyridinyl)-N′-[2-(5-methoxy-2-propargyloxyphenyl)ethyl]-thiourea], which “activity relative to HI-236 in cell culture” value (HIV-1 (IIIB)) is on record?
**A.** equal to HI-236

**Q.** What does the source list for `COC(=O)COc1ccc(OC)cc1CCNC(=S)Nc1ccc(Br)cn1` [6k, N-(5-Bromo-2-pyridinyl)-N′-[2-(2-methoxycarbonylmethyloxy-5-methoxyphenyl)ethyl]-thiourea]?
**A.** pIC50 (HIV-1 RT): 7.00; fold improvement in RT assay over cell culture (HIV-1 RT; RT IC50 versus cell-culture EC50): 120 fold
